Reference: patent US6660494B2 (priority 2000, dated 2003)
“Also recorded” adds a separate entry of the source. Like-named read-outs stand apart in the source and are kept apart here.

How the values were obtained:
[1] = target: PC-PLC from Clostridium perfringens (Clostridium perfringens, UniProt P0C216); format: biochemical
solubility in water = format: physicochemical
[2] = target: PC-PLC of Clostridium perfringens (Clostridium perfringens, UniProt P0C216); format: biochemical
[3] = stability on storage, in buffer solutions and in plating media; format: physicochemical; conditions: for stability in conventional buffer solutions: citrate/hydrochloric acid, Hepes/NaOH, Tris/HCl, boric acid/potassium chloride-sodium hydroxide, pH about 4 to about 10, ambient temperature; for stability in conventional plating media: e.g. Tryptic Soy Agar; for storage stability: temperatures below about 5° C., protected from light

Chain of PC-PLC from Clostridium perfringens (P0C216 29-398 limits assumed): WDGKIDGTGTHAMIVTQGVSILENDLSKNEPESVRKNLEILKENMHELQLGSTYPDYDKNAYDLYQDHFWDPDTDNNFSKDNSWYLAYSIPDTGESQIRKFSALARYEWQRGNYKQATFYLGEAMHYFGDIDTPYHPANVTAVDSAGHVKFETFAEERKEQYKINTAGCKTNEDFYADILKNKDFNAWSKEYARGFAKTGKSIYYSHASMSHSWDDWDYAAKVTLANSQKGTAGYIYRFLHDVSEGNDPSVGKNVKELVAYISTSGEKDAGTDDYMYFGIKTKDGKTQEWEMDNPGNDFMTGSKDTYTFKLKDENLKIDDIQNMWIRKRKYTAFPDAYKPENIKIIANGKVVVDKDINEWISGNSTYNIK
Chain of PC-PLC of Clostridium perfringens (P0C216 29-398 limits assumed): as above

For C[N+](C)(C)CCOP(=O)([O-])Oc1c[nH]c2ccc(Br)c(Cl)c12 [X-CP, 5-bromo-4-chloro-3-indoxyl choline phosphate], the Vmax [1] was 93.6 nMol min^−1 (μg enzyme)^−1 and ≈ 94 μMol min^−1 (mg enzyme)^−1, the “Vmax (rate of cleavage under saturating conditions)” value [1] was 312 nmol/min and the “cleavage at 60° C. versus ambient temperature, times faster” value [1] was “approximately 160”. For the same compound, the “factor of increase of enzymatic activity for every 10° C. of rise in temperature” value [1] was 3-4, the Rate ([1]; 22° C.) was 0.65 nmol/min and the “Specific Activity” value ([1]; 22° C.) was 0.1 µmol/min/mg. The Rate ([1]; 41° C.) was 8.1 nmol/min, the “Specific Activity” value ([1]; 41° C.) was 1.2 µmol/min/mg and the Rate ([1]; 46° C.) was 19.7 nmol/min. For the same compound, the “Specific Activity” value ([1]; 46° C.) was 3.0 µmol/min/mg, the Rate ([1]; 51° C.) was 25.8 nmol/min and the “Specific Activity” value ([1]; 51° C.) was 3.9 µmol/min/mg. For the same compound, the Rate ([1]; 55° C.) was 48.5 nmol/min, the “Specific Activity” value ([1]; 55° C.) was 7.3 µmol/min/mg and the Rate ([1]; 60° C.) was 106.8 nmol/min. The “Specific Activity” value ([1]; 60° C.) was 16.0 µmol/min/mg, the Km ([1]; read-out: Km (Michaelis-Menten constant)) was about 42 mM and the solubility in water (solubility in water) was “freely soluble in water”. For the same compound, the “additional effect on cleavage rate when these detergents/surfactants are combined with BSA” value [2] was “no additional enhancement”, the “effect of detergent/surfactant additive on cleavage rate of the enzyme” value [2] was “slight enhancement” and the “color of the solution” value ([2]; pH 7) was “Bluish; also recorded: Colorless; also recorded: Pale blue; also recorded: Light blue; also recorded: Colorless*”. For the same compound, the “stability in conventional buffer solutions” value [3] was “at least ten days”, the “stability in conventional plating media” value [3] was “stable” and the storage stability [3] was “stable during extended periods of time”.

With C[N+](C)(C)CCOP(=O)([O-])Oc1c[nH]c2ccccc12 [Y-CP, 3-indoxylcholine phosphate] the solubility in water (solubility in water) was “freely soluble in water”, the “stability in conventional buffer solutions” value [3] was “at least ten days” and the “stability in conventional plating media” value [3] was “stable”. The storage stability [3] was “stable during extended periods of time”.
